The term IC50 denotes the concentration needed to halve the response being measured.

Data on 18 compounds can be found in patent publication US12410171B2, “Tropomyosin receptor kinase (TRK) degradation compounds and methods of use” (Cullgen (Shanghai), Inc., priority 2020, dated 2025).

The subject of experiment [1] is KM12 cells. In words: KM12 cell viability (CellTiter-Glo). Particulars: Homo sapiens, 72 h; KM12 cell viability, CellTiter-Glo, three days treatment; read-out: IC50. The format is cell-based. In a few lines:
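Three-day exposure of KM12 cells (5000/well, RPMI 1640 with 10% FBS, 37 °C, 5% CO2) to compound dilution series, 3-fold over 8 or 11 points (top 1000 nM in the 8-point format) or 2-fold over 12. CellTiter-Glo readout, with IC50 fitted by nonlinear least-squares regression.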
For orientation: ATP-based viability assays read luminescence as a measure of living cells.

In experiment [2] the target is T1, TPM3-TRKA fusion protein (Homo sapiens, UniProt P04629).
T1 construct: The resulted chimeric proteins always retain the kinase domain of TRK proteins; TPM3 (fusion partner, N-terminal part of tropomyosin alpha-3, P06753); endogenous in cells; host or cells: KM12 colon cancer cells; the other entry of the earlier key: TPM3 (P06753, Tropomyosin alpha-3 chain)
The experiment is described as follows: TPM3-TRKA fusion protein levels in KM12 cells (Western blot). To be noted: read-out: Degradation (at 10 nM). The format is cell-based. Summed up: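 TPM3-TRKA levels were assessed by Western blot with chemiluminescent detection and band densitometry, after SDS-PAGE of BCA-normalized RIPA lysates. Before lysis, KM12 cells received DMSO, compounds or matched control compounds at concentrations including 0.1, 1, 10 and 100 nM and 0.4–30 nM. Exposures lasted 4 h, 8–16 h or 16 h.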

Where [3] appears, read: 16 h, TPM3-TRKA degradation in KM12 cells at 10 nM compound, category of percentage degradation.

Where two headings read alike, the source gives them in different places. A value given as a limit tells only on which side of the number the result lay.

T1 sequence (P04629 with tags, fused parts or gaps): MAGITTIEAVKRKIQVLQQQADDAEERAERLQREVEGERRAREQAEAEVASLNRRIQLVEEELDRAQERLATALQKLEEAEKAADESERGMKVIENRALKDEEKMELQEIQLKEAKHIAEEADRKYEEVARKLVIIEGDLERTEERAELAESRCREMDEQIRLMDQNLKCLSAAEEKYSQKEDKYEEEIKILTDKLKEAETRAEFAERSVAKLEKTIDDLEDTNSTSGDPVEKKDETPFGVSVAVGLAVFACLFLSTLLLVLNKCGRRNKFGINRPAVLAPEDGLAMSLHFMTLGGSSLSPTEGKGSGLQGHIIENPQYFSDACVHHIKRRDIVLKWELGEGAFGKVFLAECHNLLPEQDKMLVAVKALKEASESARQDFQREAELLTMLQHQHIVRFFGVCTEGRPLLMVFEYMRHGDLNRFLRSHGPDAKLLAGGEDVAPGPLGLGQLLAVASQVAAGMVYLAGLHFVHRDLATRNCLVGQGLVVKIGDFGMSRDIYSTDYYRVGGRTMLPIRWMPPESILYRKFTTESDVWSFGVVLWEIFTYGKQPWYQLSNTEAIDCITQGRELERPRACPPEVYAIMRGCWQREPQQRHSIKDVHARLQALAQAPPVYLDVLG

As to `O=C1CCC(N2C(=O)c3ccc(CN4CCC(N5CCN(c6ccc(C(=O)Nc7n[nH]c8ccc(Cc9cc(F)cc(F)c9)cc78)c(NC7CCOCC7)c6)CC5)C4)cc3C2=O)C(=O)N1` (stereo not drawn) [TR-285, N-(5-(3,5-difluorobenzyl)-1H-indazol-3-yl)-4-(4-(1-((2-(2,6-dioxopiperidin-3-yl)-1,3-dioxoisoindolin-5-yl)methyl)pyrrolidin-3-yl)piperazin-1-yl)-2-((tetrahydro-2H-pyran-4-yl)amino)benzamide], the IC50 in experiment [1] stood at 9.7 nM. For the same compound, the percent degradation of TPM3-TRKA protein at 0.01 µM in experiment [2] (setting [3]) was > 80%.
Turning to `O=C1CCC(N2C(=O)c3ccc(N4CCOC(CN5CCN(c6cccc(-c7cnc8ccc(N9CCC[C@@H]9c9cccc(F)c9)nn78)n6)CC5)C4)cc3C2=O)C(=O)N1` (stereo partly drawn) [TR-286, 2-(2,6-dioxopiperidin-3-yl)-5-(2-((4-(6-(6-((R)-2-(3-fluorophenyl)pyrrolidin-1-yl)imidazo[1,2-b]pyridazin-3-yl)pyridin-2-yl)piperazin-1-yl)methyl)morpholino) isoindoline-1,3-dione], the IC50 in experiment [1] was 7.8 nM. For the same compound, the percent degradation of TPM3-TRKA protein at 0.01 µM in experiment [2] (setting [3]) was > 80%.
On the same counts, the results for `O=C1CCC(N2C(=O)c3ccc(N4CC(OC5CCN(c6cccc(-c7cnc8ccc(N9CCC[C@@H]9c9cccc(F)c9)nn78)n6)CC5)C4)cc3C2=O)C(=O)N1` (stereo partly drawn) [TR-287, 2-(2,6-dioxopiperidin-3-yl)-5-(3-((1-(6-(6-((R)-2˜ (3-fluorophenyl)pyrrolidin-1-yl)imidazo[1,2-b]pyridazin-3-yl)pyridin-2-yl)piperidin-4-yl)oxy)azetidin-1-yl)isoindoline-1,3-dione] are 19.3 nM and > 80%.
`O=C1CCC(N2C(=O)c3ccc(N4CC(NC5CCN(c6cccc(-c7cnc8ccc(N9CCC[C@@H]9c9cccc(F)c9)nn78)n6)CC5)C4)cc3C2=O)C(=O)N1` (stereo partly drawn) [TR-288, 2-(2,6-dioxopiperidin-3-yl)-5-(3-((1-(6-(6-((R)-2-(3-fluorophenyl)pyrrolidin-1-yl)imidazo[1,2-b]pyridazin-3-yl)pyridin-2-yl)piperidin-4-yl)amino)azetidin-1-yl)isoindoline-1,3-dione]: the IC50 in experiment [1] is 9.2 nM. Further, in experiment [2] (KM12, 16 h), the percent degradation of TPM3-TRKA protein at 0.01 µM was > 80%.
`O=C1CCC(N2C(=O)c3ccc(NC4CCC(N5CCN(c6ccc(C(=O)Nc7n[nH]c8ccc(Cc9cc(F)cc(F)c9)cc78)c(NC7CCOCC7)c6)CC5)CC4)cc3C2=O)C(=O)N1` (stereo not drawn) [TR-289, N-(5-(3,5-Difluorobenzyl)-1H-indazol-3-yl)-4-(4-(4-((2-(2,6-dioxopiperidin-3-yl)-1,3-dioxoisoindolin-5-yl)amino)cyclohexyl)piperazin-1-yl)-2-((tetrahydro-2H-pyran-4-yl)amino)benzamide]: the IC50 in experiment [1] worked out at 3.8 nM. Further, the percent degradation of TPM3-TRKA protein at 0.01 µM in experiment [2] (setting [3]) is > 80%.
On to `O=C1CCC(N2C(=O)c3ccc(N4CCC5(CC(N6CCN(c7ccc(C(=O)Nc8n[nH]c9ccc(Cc%10cc(F)cc(F)c%10)cc89)c(NC8CCOCC8)c7)CC6)C5)C4)cc3C2=O)C(=O)N1` (stereo not drawn) [TR-290, N-(5-(3,5-difluorobenzyl)-1H-indazol-3-yl)-4-(4-(6-(2-(2,6-dioxopiperidin-3-yl)-1,3-dioxoisoindolin-5-yl)-6-azaspiro[3.4]octan-2-yl)piperazin-1-yl)-2-((tetrahydro-2H-pyran-4-yl)amino)benzamide], for which the IC50 in experiment [1] was found to be 11.2 nM. In addition, in experiment [2] (setting [3]), the percent degradation of TPM3-TRKA protein at 0.01 µM was > 80%.
On the same counts, the results for `O=C1CCC(N2C(=O)c3ccc(C4CN(CCN5CCN(c6cccc(-c7cnc8ccc(N9CCC[C@@H]9c9cccc(F)c9)nn78)n6)CC5)C4)cc3C2=O)C(=O)N1` (stereo partly drawn) [TR-292, 2-(2,6-dioxopiperidin-3-yl)-5-(1-(2-(4-(6-(6-((R)-2-(3-fluorophenyl)pyrrolidin-1-yl)imidazo[1,2-b]pyridazin-3-yl)pyridin-2-yl)piperazin-1-yl)ethyl)azetidin-3-yl)isoindoline-1,3-dione] are 8.2 nM and > 80%.
With `O=C1CCC(N2C(=O)c3ccc(C4CN(CC5CCN(c6cccc(-c7cnc8ccc(N9CCC[C@@H]9c9cccc(F)c9)nn78)n6)CC5)C4)cc3C2=O)C(=O)N1` (stereo partly drawn) [TR-293, 2-(2,6-dioxopiperidin-3-yl)-5-(1-((1-(6-(6-((R)-2-(3-fluorophenyl)pyrrolidin-1-yl)imidazo[1,2-b]pyridazin-3-yl)pyridin-2-yl)piperidin-4-yl)methyl)azetidin-3-yl)isoindoline-1,3-dione], in experiment [1], the IC50 was found to be 9.5 nM. In addition, the percent degradation of TPM3-TRKA protein at 0.01 µM in experiment [2] (setting [3]) is > 80%.
As for `O=C1CCC(N2C(=O)c3cccc(CN4CC(CN5CCN(c6cccc(-c7cnc8ccc(N9CCC[C@@H]9c9cccc(F)c9)nn78)n6)CC5)C4)c3C2=O)C(=O)N1` (stereo partly drawn) [TR-294, 2-(2,6-Dioxopiperidin-3-yl)-4-((3-((4-(6-(6-((R)-2-(3-fluorophenyl)pyrrolidin-1-yl)imidazo[1,2-b]pyridazin-3-yl)pyridin-2-yl)piperazin-1-yl)methyl)azetidin-1-yl)methyl)isoindoline-1,3-dione], the IC50 in experiment [1] was determined as 12.5 nM. For the same compound, the percent degradation of TPM3-TRKA protein at 0.01 µM in experiment [2] (setting [3]) was > 80%.
The corresponding values for `Cc1nc2cccc(N3CC(CN4CCN(c5cccc(-c6cnc7ccc(N8CCC[C@@H]8c8cccc(F)c8)nn67)n5)CC4)C3)c2c(=O)n1C1CCC(=O)NC1=O` (stereo partly drawn) [TR-295] are 30 nM and 50 to 80%.
The corresponding values for `O=C1CCC(n2nnc3cccc(N4CC(CN5CCN(c6cccc(-c7cnc8ccc(N9CCC[C@@H]9c9cccc(F)c9)nn78)n6)CC5)C4)c3c2=O)C(=O)N1` (stereo partly drawn) [TR-296] are 22 nM and 50 to 80%.
Consider `O=C1CCC(n2nnc3cccc(N4CC(CCN5CCN(c6cccc(-c7cnc8ccc(N9CCC[C@@H]9c9cccc(F)c9)nn78)n6)CC5)C4)c3c2=O)C(=O)N1` (stereo partly drawn) [TR-297], for which the IC50 in experiment [1] amounted to 39 nM. In experiment [2] (setting [3]), the percent degradation of TPM3-TRKA protein at 0.01 µM fell in the range of 50 to 80%.
As for `O=C1CCC(N2Cc3ccc(C#CCN4CCN(c5ccc(C(=O)Nc6n[nH]c7ccc(Cc8cc(F)cc(F)c8)cc67)c(NC6CCOCC6)c5)CC4)cc3C2=O)C(=O)N1` (stereo not drawn) [TR-298, N—(S-(3,5-Difluorobenzyl)-1H-indazol-3-yl)-4-(4-(3-(2-(2,6-dioxopiperidin-3-yl)-3-oxoisoindolin-5-yl)prop-2-yn-1-yl)piperazin-1-yl)-2-((tetrahydro-2/-pyran-4-yl)amino)benzamide], the IC50 in experiment [1] worked out at 30 nM. For the same compound, the percent degradation of TPM3-TRKA protein at 0.01 µM in experiment [2] (setting [3]) is > 80%.
For `O=C1CCC(N2C(=O)c3ccc(NC4CCC(N5CCN(c6ccc(C(=O)Nc7n[nH]c8ccc(Cc9cc(F)cc(F)c9)cc78)c(NC7CCOCC7)c6)CC5)C4)cc3C2=O)C(=O)N1` (stereo not drawn) [TR-299, N-(5-(3,5-Difluorobenzyl)-1H-indazol-3-yl)-4-(4-(3-((2-(2,6-dioxopiperidin-3-yl)-1,3-dioxoisoindolin-S-yl)amino)cyclopentyl)piperazin-1-yl)-2-((tetrahydro-2/-pyran-4-yl)amino)benzamide], the concentration for half-maximal inhibition (IC50) in experiment [1] was 23 nM. Moreover, the percent degradation of TPM3-TRKA protein at 0.01 µM in experiment [2] (setting [3]) was > 80%.
The corresponding values for `O=C1CCC(N2Cc3cc(N4CC(CN5CCN(c6ccc(C(=O)Nc7n[nH]c8ccc(Cc9cc(F)cc(F)c9)cc78)c(NC7CCOCC7)c6)CC5)C4)ccc3C2=O)C(=O)N1` (stereo not drawn) [TR-300, N—(S-(3,5-Difluorobenzyl)-1H-indazol-3-yl)-4-(4-((1˜ (2˜ (2,6-dioxopiperidin-3-yl)-1-oxoisoindolin-5-yl)azetidin-3-yl)methyl)piperazin-1-yl)-2-((tetrahydro-2H-pyran-4-yl)amino)benzamide] are 53 nM and 50 to 80%.
On to `CC(C1CN(c2ccc3c(c2)C(=O)N(C2CCC(=O)NC2=O)C3=O)C1)N1CCN(c2ccc(C(=O)Nc3n[nH]c4ccc(Cc5cc(F)cc(F)c5)cc34)c(NC3CCOCC3)c2)CC1` (stereo not drawn) [TR-301, N-(5-(3,5-difluorobenzyl)-1H-indazol-3-yl)-4-(4-(1-(1-(2-(2,6-dioxopiperidin-3-yl)-1,3-dioxoisoindolin-5-yl)azetidin-3-yl)ethyl)piperazin-1-yl)-2-((tetrahydro-2H-pyran-4-yl)amino)benzamide], for which, in experiment [1], the IC50 was 6 nM. The percent degradation of TPM3-TRKA protein at 0.01 µM in experiment [2] (setting [3]) is > 80%.
As for `O=C1CCC(N2Cc3cc(C4CN(C5CCN(c6cccc(-c7cnc8ccc(N9CCC[C@@H]9c9cccc(F)c9)nn78)n6)CC5)C4)ccc3C2=O)C(=O)N1` (stereo partly drawn) [TR-302, 3-(5-(1-(1-(6-(6-((R)-2-(3-fluorophenyl)pyrrolidin-1-yl)imidazo[1,2-b]pyridazin-3-yl)pyridin-2-yl)piperidin-4-yl)azetidin-3-yl)-1-oxoisoindolin-2-yl)piperidine-2,6-dione], the IC50 in experiment [1] was determined as 1.7 nM. For the same compound, in experiment [2] (KM12, 16 h), the percent degradation of TPM3-TRKA protein at 0.01 µM was > 80%.
As to `Cn1c(=O)n(C2CCC(=O)NC2=O)c2cccc(C#CCN3CCN(c4ccc(C(=O)Nc5n[nH]c6ccc(Cc7cc(F)cc(F)c7)cc56)c(NC5CCOCC5)c4)CC3)c21` (stereo not drawn) [TR-303, N-(5-(3,5˜Difluorobenzyl)-1H-indazol-3-yl)-4-(4-(3-(1-(2,6-dioxopiperidin-3-yl)-3-methyl-2-oxo-2,3˜dihydro-1/7-benzo[d]imidazol-4-yl)prop-2-yn-1-yl)piperazin-1-yl)-2-((tetrahydro-2/-pyran-4-yl)amino)benzamide], the IC50 in experiment [1] turned out to be 8.4 nM. Besides, the percent degradation of TPM3-TRKA protein at 0.01 µM in experiment [2] (setting [3]) is > 80%.
